Laboratory results as given in patent publication US20260294838A1, “ACTIVATION ENHANCER AND FOOD AND DRINK FOR ENHANCING ACTIVATION” (Asahi Group Holdings, Ltd., priority 2023, published 2026).

Experiments:
brain blood flow = conditions: humans exposed to nerol and geraniol (aroma components of lemongrass extract); cited from earlier work
EEG = test: Reference Example: EEG test in the same manner as in Test Example 4; format: in vivo, human (healthy Japanese men and women, 20 to 39 years old); conditions: 10-ppm aqueous solution, same manner as Test Example 4 (EEG), 20 subjects
Protocol: Each subject was instructed to wear an electroencephalograph (model number: HARU-2, manufactured by PGV Co., Ltd.), and to wait for 5 minutes at rest, and then asked to answer a questionnaire for one minute. Subsequently, each subject was instructed to ingest 200 mL of the test beverage within 5 minutes, and thereafter, to wait at rest except for answering the questionnaire for one minute immediately after the ingestion, 15 minutes after the ingestion, 30 minutes after the ingestion and 45 minutes after the ingestion. The EEG were measured from before the ingestion of the test beverage until 45 minutes after the ingestion. The same measurement was carried out one more time. The beverage to be ingested was selected at random for each subject, and each subject was instructed to ingest each beverage once.
In the analysis of EEG, the data obtained during the questionnaires and the ingestion that affect the EEG were excluded from the analysis target. The EEG measured during each waiting time at rest before and after the ingestion were analyzed using the MNE library (ver. 1.3.0) in Python language, and the B/a ratio was calculated from the two-minute data. No exclusion of target data was allowed, and all cases were analyzed as the target.
The test was carried out in the same manner as in Test Example 4, using a 10-ppm aqueous solution of each of: geraniol, which is the isomer of nerol; α-terpineol, which is a degradation product of nerol; and linalool, on 20 healthy Japanese men and women with ages ranging from 20 years old to 39 years old, as the subjects. As a result, the effect of enhancing activation was not observed in any of geraniol, α-terpineol and linalool.

rats = conditions: cited from earlier work

Structure (SMILES)	amount of brain blood flow (brain blood flow)	effect of enhancing activation (EEG)	acceptable daily intake (ADI) per person (rats; calculated, assuming an adult with a body weight of 50 kg)	acceptable daily intake (ADI) (rats; calculated)	no-observed adverse effect level (NOAEL), lowest value (rats; repeated dose toxicity study on rats)
CC(C)=CCC/C(C)=C/CO [geraniol]	increased significantly	not observed			
C=CC(C)(O)CCC=C(C)C (centres unmarked) [linalool]		not observed			
CC(C)=CCC/C(C)=C\CO [nerol, (Z)-3,7-dimethyl-2,6-octadien-1-ol]	increased significantly		95.5 mg/person/day	1.91 mg/kg/day	191 mg/kg/day
CC1=CCC(C(C)(C)O)CC1 (stereo not drawn) [α-terpineol]		not observed			
